Measurements: PubChem BioAssay (NCI)
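Test compounds were applied to cells in 96-well plates for 48 hours at 5 doses. At the GI50, growth is halved. At the TGI there is no net growth.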

Tests used:
Experiment in all cases: growth of human tumour cells (NCI), 48 h
[1] = tested on: U251 CNS
[2] = tested on: ACHN renal
[3] = tested on: IGROV1 ovarian
[4] = tested on: TK-10 renal
[5] = tested on: SK-MEL-28 melanoma
[6] = tested on: M14 melanoma
[7] = tested on: KM12 colon
[8] = tested on: SK-OV-3 ovarian
[9] = tested on: MDA-MB-231 breast
[10] = tested on: CAKI-1 renal
[11] = tested on: A549 NSCLC
[12] = tested on: 786-0 renal
[13] = tested on: T-47D breast
[14] = tested on: OVCAR-5 ovarian
[15] = tested on: SF-268 CNS
[16] = tested on: HOP-92 NSCLC
[17] = tested on: UO-31 renal
[18] = tested on: HOP-62 NSCLC
[19] = tested on: HCT-116 colon
[20] = tested on: NCI-H522 lung
[21] = tested on: PC-3 prostate
[22] = tested on: NCI-H226 lung
[23] = tested on: SF-295 CNS
[24] = tested on: HCT-15 colon
[25] = tested on: NCI-H23 lung
[26] = tested on: MDA-MB-468 breast
[27] = tested on: NCI/ADR-RES ovarian
[28] = tested on: A498 renal
[29] = tested on: SN12C renal
[30] = tested on: SF-539 CNS
[31] = tested on: OVCAR-3 ovarian
[32] = tested on: COLO 205 colon
[33] = tested on: DU-145 prostate
[34] = tested on: CCRF-CEM leukemia
[35] = tested on: UACC-257 melanoma
[36] = tested on: RXF 393 renal
[37] = tested on: SNB-19 CNS
[38] = tested on: MALME-3M melanoma
[39] = tested on: OVCAR-4 ovarian
[40] = tested on: HL-60(TB) leukemia
[41] = tested on: BT-549 breast
[42] = tested on: SW-620 colon
[43] = tested on: MOLT-4 leukemia
[44] = tested on: K-562 leukemia
[45] = tested on: NCI-H460 lung
[46] = tested on: MCF7 breast
[47] = tested on: MDA-MB-435
[48] = tested on: SK-MEL-5 melanoma
[49] = tested on: UACC-62 melanoma
[50] = tested on: LOX IMVI melanoma
[51] = tested on: HT29 colon
[52] = tested on: SK-MEL-2 melanoma
[53] = tested on: HS 578T breast
[54] = tested on: RPMI-8226 leukemia
[55] = tested on: SNB-75 CNS
[56] = tested on: HCC-2998 colon
[57] = tested on: OVCAR-8 ovarian
[58] = tested on: EKVX NSCLC

With `COc1ccc2[nH]c(O)c(N=NC(=O)Cn3c(-c4ccccc4)nc4cc(C)ccc43)c2c1` the GI50 [1] was 17 µM, the TGI [1] was 36.2 µM and the GI50 [2] was 14.5 µM. It also gave a TGI [2] of 27.5 µM, a GI50 [3] of 14.7 µM and a TGI [3] of 29.6 µM. For the same molecule, the GI50 [4] was 29 µM, the TGI [4] was 77.3 µM and the GI50 [5] was 16.5 µM. The TGI [5] was 30.9 µM, the GI50 [6] was 15.7 µM and the TGI [6] was 31.2 µM. The GI50 [7] was 18.7 µM, the TGI [7] was 42.5 µM and the GI50 [8] was 15.8 µM. It also gave a TGI [8] of 31.3 µM, a GI50 [9] of 13.1 µM and a TGI [9] of 26.4 µM. For the same molecule, the GI50 [10] was 12.6 µM, the TGI [10] was 27 µM and the GI50 [11] was 16.6 µM. For the same molecule, the TGI [11] was 36.7 µM, the GI50 [12] was 16 µM and the TGI [12] was 30.2 µM. It also gave a GI50 [13] of 7.33 µM, a TGI [13] of 28.1 µM and a GI50 [14] of 14.9 µM. For the same molecule, the TGI [14] was 28.6 µM, the GI50 [15] was 18.5 µM and the TGI [15] was 64.2 µM. For the same molecule, the GI50 [16] was 3.3 µM, the TGI [16] was 18 µM and the GI50 [17] was 7.52 µM. For the same molecule, the TGI [17] was 23.7 µM, the GI50 [18] was 16 µM and the TGI [18] was 35.6 µM. The GI50 [19] was 14 µM, the TGI [19] was 28 µM and the GI50 [20] was 15.2 µM. It also gave a TGI [20] of 32.4 µM, a GI50 [21] of 10.7 µM and a TGI [21] of 26.5 µM. It also gave a GI50 [22] of 14 µM, a TGI [22] of 30.7 µM and a GI50 [23] of 14.3 µM. The TGI [23] was 29 µM, the GI50 [24] was 15.5 µM and the TGI [24] was 31.1 µM. For the same molecule, the GI50 [25] was 16.7 µM, the TGI [25] was 31.8 µM and the GI50 [26] was 14.9 µM. It also gave a TGI [26] of 30.2 µM, a GI50 [27] of 16.8 µM and a TGI [27] of 34.5 µM. It also gave a GI50 [28] of 17.1 µM, a TGI [28] of 32.6 µM and a GI50 [29] of 13.5 µM. The TGI [29] was 26.9 µM, the GI50 [30] was 14.9 µM and the TGI [30] was 28.5 µM. It also gave a GI50 [31] of 17.5 µM, a TGI [31] of 42.9 µM and a GI50 [32] of 17.5 µM. The TGI [32] was 35.1 µM, the GI50 [33] was 19.9 µM and the TGI [33] was 44.4 µM. It also gave a GI50 [34] of 17.3 µM, a TGI [34] of 43.6 µM and a GI50 [35] of 15.9 µM. It also gave a TGI [35] of 31.7 µM, a GI50 [36] of 2.37 µM and a TGI [36] of 12.6 µM. It also gave a GI50 [37] of 16.2 µM, a TGI [37] of 32.6 µM and a GI50 [38] of 14.5 µM. The TGI [38] was 28.8 µM, the GI50 [39] was 15 µM and the TGI [39] was 36.9 µM. It also gave a GI50 [40] of 17.5 µM, a TGI [40] of 42.3 µM and a GI50 [41] of 13.4 µM. For the same molecule, the TGI [41] was 27.9 µM, the GI50 [42] was 20.1 µM and the TGI [42] was 47.6 µM. For the same molecule, the GI50 [43] was 10.6 µM, the TGI [43] was 37.2 µM and the GI50 [44] was 18 µM. It also gave a TGI [44] of 62.4 µM, a GI50 [45] of 19.3 µM and a TGI [45] of 42.3 µM. It also gave a GI50 [46] of 13.5 µM, a TGI [46] of 31.6 µM and a GI50 [47] of 16.7 µM. For the same molecule, the TGI [47] was 34.7 µM, the GI50 [48] was 15 µM and the TGI [48] was 28.5 µM. The GI50 [49] was 12.4 µM, the TGI [49] was 25.5 µM and the GI50 [50] was 14.9 µM. For the same molecule, the TGI [50] was 28.3 µM, the GI50 [51] was 21.5 µM and the TGI [51] was 55.5 µM. For the same molecule, the GI50 [52] was 14.9 µM, the TGI [52] was 30.4 µM and the GI50 [53] was 13.2 µM. It also gave a TGI [53] of 46.1 µM, a GI50 [54] of 9.97 µM and a TGI [54] of 35.9 µM. For the same molecule, the GI50 [55] was 9.86 µM, the TGI [55] was 24.2 µM and the GI50 [56] was 17.5 µM. The TGI [56] was 31.6 µM, the GI50 [57] was 15.7 µM and the TGI [57] was 37.1 µM. For the same molecule, the GI50 [58] was 11 µM and the TGI [58] was 24.6 µM.
